We go through ten compounds from publication PMC8221158, “Novel pyrrolizines bearing 3,4,5-trimethoxyphenyl moiety: design, synthesis, molecular docking, and biological evaluation as potential multi-target cytotoxic agents” (Journal of Enzyme Inhibition and Medicinal Chemistry, 2021).

Usually IC50 stands for the concentration that inhibits the measured activity by half. A word on the melting point: it is the temperature, or range, at which the solid turns liquid.

The structures appear in SMILES notation. Read-outs that look alike come from different tables or passages of the source.

Data set [1] has as its system MCF-7, HCT116, and A2780 cancer cell lines. As to the kind of experiment: MTT assay, three cancer cell lines taken together (average, overall range). The settings on record: for IC50: Homo sapiens. It is filed as cell-based, human. (Formazan colour is commonly taken as a measure of viable cells.)
Protocol: Cells from flasks of 70–80% confluency were separately seeded in 96-well flat-bottom microculture plates (Nalgene-Nunc, Thermo Fisher Scientific, Roskilde, Denmark) at a density of 3 × 10^3 cells (MCF-7, A2780, and MRC-5), 1 × 10^4 cells (HCT116), to a volume of 180 μL/well of culture medium. […] The final concentrations of each compound in wells were: 0–50 μM in 200 μL of media (DMSO 0.1%). Lapatinib (Cayman, Ann Arbor, MI) was used as a positive control at the same final concentrations. Medium only (20 μL) was added to each control well, and each concentration was tested in triplicates (n = 3). Following incubation for 72 h, 50 μL MTT was added into each well. Plates were incubated for 3 h, the supernatant was aspirated, and 100 μL of DMSO was added to each well. The optical density (OD) of the purple formazan is proportional to the number of viable cells. […] The absorbance of the reduced MTT was determined using a microplate reader A570 nm.
Data set [2] deals with normal MRC-5 cells. As to the kind of experiment: MTT assay, normal cells (cytotoxic selectivity). It is filed as cell-based. As to conditions: Homo sapiens, MRC5, 72 h treatment, n = 3, read-out: IC50 (µM ± SD) MRC-5. As for the experimental part: (§1) MCF-7 (human breast adenocarcinoma), A2780 (human ovarian cancer) and HCT116 (human colorectal carcinoma), and MRC-5 (normal foetal lung fibroblast) cell lines were bought from the ATCC and were cultured in flasks which were incubated at 37 °C in an atmosphere of 5% CO2, 95% air, and 100% relative humidity, to maintain continuous logarithmic growth. MCF-7, A2780, and HCT116 were maintained in RPMI-1640 media (100 U/mL penicillin, 100 µg/mL streptomycin, and 10% foetal bovine serum, Gibco, Carlsbad, CA). MRC-5 cells were maintained in EMEM (100 U/mL penicillin, 100 µg/mL streptomycin, and 10% foetal bovine serum, Gibco, Carlsbad, CA). Doxorubicin (5 μg/mL, for three months) added for RPMI-1640 media containing MCF7 cells was used to develop doxorubicin-resistant MCF7/ADR cells. All cancer and normal cell lines were cultured according to our previous report. Cells were used within 10–20 passages and were checked for mycoplasma every 6 months, by measuring the bioluminescence (Myco Alert sample detection kit; Lonza, Basel, Switzerland) using the multiplate reader (Synergy HT, BioTek, Winooski, VT).
(§2) The MTT assay was used to measure the cytotoxicity and growth inhibitory activities and cytotoxicity of the new compounds according to our previous report[13]^,[17]. Cells from flasks of 70–80% confluency were separately seeded in 96-well flat-bottom microculture plates (Nalgene-Nunc, Thermo Fisher Scientific, Roskilde, Denmark) at a density of 3 × 10^3 cells (MCF-7, A2780, and MRC-5), 1 × 10^4 cells (HCT116), to a volume of 180 μL/well of culture medium. A Neubauer haemocytometer was used for cell counting. Cells were incubated at 37 °C overnight to allow attachment to the wells. The final concentrations of each compound in wells were: 0–50 μM in 200 μL of media (DMSO 0.1%). Lapatinib (Cayman, Ann Arbor, MI) was used as a positive control at the same final concentrations. Medium only (20 μL) was added to each control well, and each concentration was tested in triplicates (n = 3). Following incubation for 72 h, 50 μL MTT was added into each well. Plates were incubated for 3 h, the supernatant was aspirated, and 100 μL of DMSO was added to each well. The optical density (OD) of the purple formazan is proportional to the number of viable cells. […] GraphPad Prism version 5.00 for Windows was used for analysis (La Jolla, CA). Cytotoxicity of the new compounds was calculated after treatment of cancer/normal cell lines for 72 h. The absorbance of the reduced MTT was determined using a microplate reader A570 nm.
Selectivity towards cancerous cells is one of the important issues which must be considered during the discovery and development of new anticancer agents. To assess the toxicity and selectivity of the new compounds (15a–e, 16a–e, 20, and 21), their growth inhibitory activities against normal human foetal lung fibroblast MRC-5 cells were evaluated using the MTT assay. […] The selectivity of the new compounds towards each of the three cancer cell lines was calculated by dividing their IC50 values against normal MRC-5 cells by their IC50 values against the corresponding cancer cell line (Table 3).

The subject of data set [3] is HCT116. The experiment in a line: MTT cell proliferation assay. It is filed as cell-based, human. As to conditions: for IC50: Homo sapiens, HCT-116, MTT, 72 h treatment, n = 3, read-out: IC50 (µM ± SD) HCT116; for Selectivity index HCT116: IC50 MRC-5 / IC50 HCT116. As for the experimental part: as §1, §2
(§3) The cytotoxic activity of the new compounds (15a–e, 16a–e, 20, and 21) was evaluated in vitro using MTT assay. The MTT assay depends on the reduction of the yellow tetrazole dye (MTT) to the purple formazan by the active mitochondrial dehydrogenase enzymes indicating the viability of the cells which can be measured as OD. The new compounds were evaluated against three non-resistant cancer cell lines: MCF-7, and A2780 cell lines were selected to compare cytotoxicity of the new compounds with the previously reported results of compounds 9a,b[13]. Cytotoxicity of the new compounds was also evaluated also against HCT116 cells which lacks COX-2 protein[33]^,[34].

Data set [4] relates to MCF-7. As to the kind of experiment: MTT cell proliferation assay. The settings on record: for IC50: Homo sapiens, MCF7, MTT, 72 h treatment, n = 3, read-out: IC50 (µM ± SD) MCF-7; for Selectivity index MCF-7: IC50 MRC-5 / IC50 MCF-7. The format is cell-based, human. The method, then:
as §1, §2, §3

Data set [5] has as its system A2780. The experiment in a line: MTT cell proliferation assay. The format is cell-based, human. As to conditions: for IC50: Homo sapiens, A2780, MTT, 72 h treatment, n = 3, read-out: IC50 (µM ± SD) A2780; for Selectivity index A2780: IC50 MRC-5 / IC50 A2780. As for the experimental part: as §1, §2, §3
Setting [6] is: MCF-7, HCT116, A2780, read-out: Average of the three IC50 values against the three cancer cell lines.

Turning to `CS(=O)(=O)CCNCc1ccc(-c2ccc3ncnc(Nc4ccc(OCc5cccc(F)c5)c(Cl)c4)c3c2)o1` [Lapatinib, reference compound], the IC50 was 8830 nM in data set [1] (setting [6]); 6690 to 10000 nM in data set [1] (MTT, 72 h, range over MCF-7, HCT116, A2780, read-out: IC50 against the three cancer cell lines); 13.7 ± 2.9 µM in data set [2]; 10 ± 1.13 µM in data set [3]; 6.69 ± 1.09 µM in data set [4]; 9.72 ± 0.845 µM in data set [5]. For the same compound, the “Selectivity index HCT116” value in data set [3] is given as 1.36. In addition, the “Selectivity index MCF-7” value in data set [4] is on record as 2.04. Further, in data set [5], the “Selectivity index A2780” value is 1.40.
With `COc1cc(C=Nc2c(C#N)c3n(c2C(=O)Nc2ccc(Br)cc2)CCC3)cc(OC)c1OC` [15e, N-(4-Bromophenyl)-7-cyano-6-((3,4,5-trimethoxybenzylidene)amino)-2,3-dihydro-1H-pyrrolizine-5-carboxamide], the melting point lay in the range of 277 to 280 °C. Moreover, in data set [1] (setting [6]), the IC50 was determined as 214 nM. Moreover, the IC50 in data set [2] was 17.1 ± 0.552 µM. Also, in data set [3], the IC50 is 0.144 ± 0.049 µM and the “Selectivity index HCT116” value is 118.61. Also, in data set [4], the IC50 was determined as 0.187 ± 0.098 µM and the “Selectivity index MCF-7” value came out at 91.24. Further, in data set [5], the IC50 was found to be 0.311 ± 0.041 µM and the “Selectivity index A2780” value turned out to be 54.92.
Take `COc1ccc(NC(=O)c2c(NC(=O)c3cc(OC)c(OC)c(OC)c3)c(C#N)c3n2CCC3)cc1` [16c, 7-Cyano-N-(4-methoxyphenyl)-6-(3,4,5-trimethoxybenzamido)-2,3-dihydro-1H-pyrrolizine-5-carboxamide]: the melting point was in the range of 259 to 261 °C. The half-inhibitory concentration (IC50) in data set [1] (setting [6]) amounted to 549 nM. The IC50 in data set [2] turned out to be 0.665 ± 0.191 µM. In data set [3], the IC50 came to 0.032 ± 0.014 µM and the “Selectivity index HCT116” value is on record as 20.78. In data set [4], the IC50 was 1.47 ± 0.452 µM and the “Selectivity index MCF-7” value turned out to be 0.45. Also, in data set [5], the half-inhibitory concentration (IC50) came to 0.144 ± 0.012 µM and the “Selectivity index A2780” value is recorded as 4.62.
Compound `COc1cc(C=Nc2c(C#N)c3n(c2C(=O)Nc2ccc(Cl)cc2)CCC3)cc(OC)c1OC` [15d, N-(4-Chlorophenyl)-7-cyano-6-((3,4,5-trimethoxybenzylidene)amino)-2,3-dihydro-1H-pyrrolizine-5-carboxamide] had a melting point of 271 to 273 °C. Further, in data set [1] (setting [6]), the IC50 was found to be 7450 nM. Further, the IC50 in data set [2] worked out at 2.07 ± 0.054 µM. In data set [3], the IC50 came to 0.534 ± 0.204 µM and the “Selectivity index HCT116” value was determined as 3.88. Further, in data set [4], the IC50 was 21.8 ± 3.18 µM and the “Selectivity index MCF-7” value stood at 0.10. Besides, in data set [5], the IC50 turned out to be 0.07 ± 0.002 µM and the “Selectivity index A2780” value is given as 29.61.
`COc1ccc(NC(=O)c2c(N=Cc3cc(OC)c(OC)c(OC)c3)c(C#N)c3n2CCC3)cc1` [15c, 7-Cyano-N-(4-methoxyphenyl)-6-((3,4,5-trimethoxybenzylidene)amino)-2,3-dihydro-1H-pyrrolizine-5-carboxamide] registered a melting point of 263 to 265 °C. Besides, in data set [1] (setting [6]), the IC50 was determined as 251 nM. Also, the IC50 in data set [2] was 1.98 ± 0.561 µM. In data set [3], the IC50 was 0.096 ± 0.015 µM and the “Selectivity index HCT116” value is 20.47. For the same compound, in data set [4], the IC50 came out at 0.616 ± 0.01 µM and the “Selectivity index MCF-7” value was 3.21. Also, in data set [5], the IC50 was determined as 0.041 ± 0.008 µM and the “Selectivity index A2780” value is listed as 48.27.
Regarding `COc1cc(C(=O)Nc2c(C#N)c3n(c2C(=O)Nc2ccccc2)CCCC3)cc(OC)c1OC` [compound 21, 1-Cyano-N-phenyl-2-(3,4,5-trimethoxybenzamido)-5,6,7,8-tetrahydroindolizine-3-carboxamide], the IC50 in data set [1] (setting [6]) came to 458 nM; in data set [2] it was 0.584 ± 0.094 µM; in data set [3], 0.176 ± 0.017 µM; in data set [4], 0.6 ± 0.054 µM; in data set [5], 0.598 ± 0.039 µM.
In turn, `COc1cc(C=Nc2c(C#N)c3n(c2C(=O)Nc2ccc(C)cc2)CCC3)cc(OC)c1OC` [15b, 7-Cyano-N-(p-tolyl)-6-((3,4,5-trimethoxybenzylidene)amino) -2,3-dihydro-1H-pyrrolizine-5-carboxamide] gave a melting point of 251 to 253 °C. In addition, in data set [1] (setting [6]), the IC50 stood at 29700 nM. Further, the IC50 in data set [2] is 3.33 ± 1 µM. In data set [3], the IC50 came out at 19.8 ± 7.76 µM and the “Selectivity index HCT116” value is reported as 0.17. Further, in data set [4], the IC50 was 35.9 ± 4.44 µM and the “Selectivity index MCF-7” value came out at 0.09. Moreover, in data set [5], the IC50 amounted to 33.4 ± 3.73 µM and the “Selectivity index A2780” value was found to be 0.10.
For `COc1cc(C=Nc2c(C#N)c3n(c2C(=O)Nc2ccccc2)CCC3)cc(OC)c1OC` [15a, 7-Cyano-N-phenyl-6-((3,4,5-trimethoxybenzylidene)amino)-2,3-dihydro-1H-pyrrolizine-5-carboxamide], the melting point lay within 242 to 244 °C. Besides, the IC50 in data set [1] (setting [6]) stood at 21000 nM. In addition, the IC50 in data set [2] came to 1.74 ± 0.149 µM. For the same compound, in data set [3], the IC50 stood at 0.353 ± 0.088 µM and the “Selectivity index HCT116” value amounted to 4.92. In data set [4], the IC50 turned out to be 36.9 ± 4.4 µM and the “Selectivity index MCF-7” value was 0.05. Moreover, in data set [5], the IC50 is 25.8 ± 4.99 µM and the “Selectivity index A2780” value turned out to be 0.07.
`COc1cc(C=Nc2c(C#N)c3n(c2C(=O)Nc2ccccc2)CCCC3)cc(OC)c1OC` [compound 20, 1-Cyano-N-phenyl-2-((3,4,5-trimethoxybenzylidene)amino)-5,6,7,8-tetrahydroindolizine-3-carboxamide] gave a melting point of 247 to 249 °C. In data set [1] (setting [6]), the IC50 stood at 2300 nM. In addition, in data set [1] (relative to compound 15a (ring expansion)), the “fold increase in cytotoxicity against the three cancer cell lines” value is 1.4–27.5 fold. Further, in data set [2], the IC50 was 1.52 ± 0.103 µM. Moreover, in data set [3], the IC50 worked out at 0.247 ± 0.069 µM and the “Selectivity index HCT116” value is 6.14. In data set [4], the IC50 was determined as 5.72 ± 0.185 µM and the “Selectivity index MCF-7” value is 0.27. Moreover, in data set [5], the IC50 is 0.938 ± 0.116 µM and the “Selectivity index A2780” value was found to be 1.62.
On to `COc1cc(C(=O)Nc2c(C#N)c3n(c2C(=O)Nc2ccc(Br)cc2)CCC3)cc(OC)c1OC` [16e, N-(4-Bromophenyl)-7-cyano-6-(3,4,5-trimethoxybenzamido) -2,3-dihydro-1H-pyrrolizine-5-carboxamide], for which the melting point fell in the range of 286 to 288 °C. The IC50 in data set [1] (setting [6]) was determined as 483 nM. Besides, the IC50 in data set [2] turned out to be 5.26 ± 1.4 µM. In data set [3], the IC50 is 0.173 ± 0.039 µM and the “Selectivity index HCT116” value is 30.40. Besides, in data set [4], the IC50 came out at 0.361 ± 0.039 µM and the “Selectivity index MCF-7” value was determined as 14.57. Moreover, in data set [5], the IC50 was determined as 0.914 ± 0.092 µM and the “Selectivity index A2780” value was found to be 5.75.
